The target of assay [1] is CtermHisTag-mEGFR Wild type (Homo sapiens, UniProt P00533). The assay is described as follows: biochemical.
Assay [2] deals with T1, Phospho-EGFR (Tyr1068) in A431 cells (Homo sapiens, UniProt P00533).
T1 construct: endogenous in cells; host or cells: A431
Description: HTRF pEGFR/total EGFR in A431 cells with EGF stimulation. It is filed as cell-based. The note with it: ratio pEGFR/total EGFR, compound 2.5 hours then 100 ng/ml EGF 30 mins. An outline of the steps: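 A431 cells were plated at 20,000 per well, allowed 24 h to adhere, then given compound for 2.5 h (0.1% DMSO final). They were then stimulated with 100 ng/ml EGF for 30 min and lysed. HTRF measured Tyr1068-phospho and total EGFR at 665/620 nm, with pEGFR/total EGFR expressed as % of the 0 μM control.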

Assay [3] deals with T2, Phospho-EGFR (Tyr1068) in H1975 cells (Homo sapiens, UniProt P00533, L858R/T790M).
T2 construct: host or cells: H1975
Description: HTRF pEGFR/total EGFR in H1975 cells. The assay is classed as cell-based. The note with it: ratio pEGFR/total EGFR, compound 3 hours. An outline of the steps: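 H1975 cells (EGFR L858R/T790M) treated 3 h with compound in 0.1% DMSO, in duplicate, 24 h after plating. Lysates assayed by HTRF for pEGFR (Tyr1068) and total EGFR at 665/620 nm; values are pEGFR/total EGFR ratio as percent of 0 μM control.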

Assay [4] concerns the target T3, Phospho-EGFR (Tyr1068) in H1975 C797S cells (CRISPR-edited EGFR C797S) (Homo sapiens, UniProt P00533, C797S/L858R/T790M).
T3 construct: host or cells: H1975 C797S (CRISPR-edited)
Description: HTRF pEGFR/total EGFR in H1975 C797S cells. It is filed as cell-based. The conditions noted are these: ratio pEGFR/total EGFR, compound 3 hours. Summed up:
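Adhered H1975 C797S cells got compound for 3 h in duplicate at 0.1% DMSO final, then were lysed 30 min at room temperature. HTRF kits quantified phospho-EGFR (Tyr1068) and total EGFR (665/620 nm); results are pEGFR/total EGFR ratio as percent of 0 μM control.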

Structures are written as SMILES. A value given as a limit tells only on which side of the number the result lay.

This is an account of results in patent US20260137703A1, “2-AMINO-PYRIDO[2,3-D]PYRIMIDIN-7(8H)-ONE AND 7-AMINO-1-PYRIMIDO[4,5-D]PYRIMIDIN-2(1 H)-ONE DERIVATIVES AS EGFR INHIBITORS FOR THE TREATMENT OF CANCER” (Cancer Research Technology Limited, priority 2022, published 2026).

Sequence of CtermHisTag-mEGFR Wild type (P00533 whole entry): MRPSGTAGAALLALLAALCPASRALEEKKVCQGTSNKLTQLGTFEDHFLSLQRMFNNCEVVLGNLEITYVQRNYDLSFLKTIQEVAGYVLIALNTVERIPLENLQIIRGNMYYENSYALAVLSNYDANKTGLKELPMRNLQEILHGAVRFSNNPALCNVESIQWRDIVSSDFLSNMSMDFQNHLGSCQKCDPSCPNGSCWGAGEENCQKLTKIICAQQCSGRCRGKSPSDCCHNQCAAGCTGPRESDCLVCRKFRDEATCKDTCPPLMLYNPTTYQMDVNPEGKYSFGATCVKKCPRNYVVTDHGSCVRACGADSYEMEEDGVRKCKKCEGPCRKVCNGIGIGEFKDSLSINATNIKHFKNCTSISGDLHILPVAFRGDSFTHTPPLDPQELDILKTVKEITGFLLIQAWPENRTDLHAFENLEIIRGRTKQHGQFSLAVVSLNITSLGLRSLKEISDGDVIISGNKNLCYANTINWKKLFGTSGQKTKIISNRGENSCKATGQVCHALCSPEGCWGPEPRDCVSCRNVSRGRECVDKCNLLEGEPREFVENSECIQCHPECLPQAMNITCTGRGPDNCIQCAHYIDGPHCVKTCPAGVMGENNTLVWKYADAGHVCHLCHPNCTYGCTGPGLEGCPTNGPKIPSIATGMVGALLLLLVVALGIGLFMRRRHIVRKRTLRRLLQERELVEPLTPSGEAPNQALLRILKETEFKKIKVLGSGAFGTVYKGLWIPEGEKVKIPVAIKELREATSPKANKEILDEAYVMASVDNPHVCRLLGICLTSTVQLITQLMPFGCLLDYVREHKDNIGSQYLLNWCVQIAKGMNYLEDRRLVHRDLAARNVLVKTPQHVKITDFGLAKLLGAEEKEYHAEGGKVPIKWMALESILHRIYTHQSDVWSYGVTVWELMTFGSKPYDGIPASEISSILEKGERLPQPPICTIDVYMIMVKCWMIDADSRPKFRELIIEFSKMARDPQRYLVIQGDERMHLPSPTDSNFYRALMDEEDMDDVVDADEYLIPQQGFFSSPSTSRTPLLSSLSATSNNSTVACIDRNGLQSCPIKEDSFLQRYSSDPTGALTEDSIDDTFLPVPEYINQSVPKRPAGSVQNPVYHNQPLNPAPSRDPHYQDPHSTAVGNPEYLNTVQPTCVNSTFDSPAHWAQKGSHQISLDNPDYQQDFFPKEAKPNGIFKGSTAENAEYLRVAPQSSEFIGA
T2 sequence (P00533 25-1210 T790M/L858R): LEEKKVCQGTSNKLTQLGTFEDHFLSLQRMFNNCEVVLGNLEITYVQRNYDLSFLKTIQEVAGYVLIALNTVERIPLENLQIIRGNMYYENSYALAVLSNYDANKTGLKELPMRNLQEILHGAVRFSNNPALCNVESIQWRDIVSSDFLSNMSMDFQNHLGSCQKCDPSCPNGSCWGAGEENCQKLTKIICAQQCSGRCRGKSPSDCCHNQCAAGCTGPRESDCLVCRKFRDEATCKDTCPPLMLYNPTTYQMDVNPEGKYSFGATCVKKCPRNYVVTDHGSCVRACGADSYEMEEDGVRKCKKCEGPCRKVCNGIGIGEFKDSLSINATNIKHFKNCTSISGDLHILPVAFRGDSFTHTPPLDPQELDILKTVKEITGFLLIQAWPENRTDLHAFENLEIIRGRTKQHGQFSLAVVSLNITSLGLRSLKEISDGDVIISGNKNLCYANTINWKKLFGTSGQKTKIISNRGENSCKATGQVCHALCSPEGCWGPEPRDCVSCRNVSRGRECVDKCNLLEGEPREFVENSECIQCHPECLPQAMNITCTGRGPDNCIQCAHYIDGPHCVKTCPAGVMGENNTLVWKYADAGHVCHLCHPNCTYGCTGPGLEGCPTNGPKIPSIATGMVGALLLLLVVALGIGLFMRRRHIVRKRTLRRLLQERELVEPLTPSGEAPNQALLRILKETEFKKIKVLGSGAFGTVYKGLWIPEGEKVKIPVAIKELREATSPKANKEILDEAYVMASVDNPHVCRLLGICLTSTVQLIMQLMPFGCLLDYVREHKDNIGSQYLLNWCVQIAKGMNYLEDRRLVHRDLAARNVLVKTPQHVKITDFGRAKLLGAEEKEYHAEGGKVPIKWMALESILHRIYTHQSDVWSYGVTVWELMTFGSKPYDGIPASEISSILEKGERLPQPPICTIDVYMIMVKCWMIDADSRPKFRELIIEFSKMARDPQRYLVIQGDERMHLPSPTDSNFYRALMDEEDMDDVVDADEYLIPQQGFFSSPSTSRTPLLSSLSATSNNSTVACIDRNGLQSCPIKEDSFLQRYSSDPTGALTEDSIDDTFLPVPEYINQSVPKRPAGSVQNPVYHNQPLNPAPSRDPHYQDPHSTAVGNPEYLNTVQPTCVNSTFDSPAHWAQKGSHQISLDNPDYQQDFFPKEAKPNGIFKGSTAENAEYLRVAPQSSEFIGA
T1 sequence (P00533 25-1210): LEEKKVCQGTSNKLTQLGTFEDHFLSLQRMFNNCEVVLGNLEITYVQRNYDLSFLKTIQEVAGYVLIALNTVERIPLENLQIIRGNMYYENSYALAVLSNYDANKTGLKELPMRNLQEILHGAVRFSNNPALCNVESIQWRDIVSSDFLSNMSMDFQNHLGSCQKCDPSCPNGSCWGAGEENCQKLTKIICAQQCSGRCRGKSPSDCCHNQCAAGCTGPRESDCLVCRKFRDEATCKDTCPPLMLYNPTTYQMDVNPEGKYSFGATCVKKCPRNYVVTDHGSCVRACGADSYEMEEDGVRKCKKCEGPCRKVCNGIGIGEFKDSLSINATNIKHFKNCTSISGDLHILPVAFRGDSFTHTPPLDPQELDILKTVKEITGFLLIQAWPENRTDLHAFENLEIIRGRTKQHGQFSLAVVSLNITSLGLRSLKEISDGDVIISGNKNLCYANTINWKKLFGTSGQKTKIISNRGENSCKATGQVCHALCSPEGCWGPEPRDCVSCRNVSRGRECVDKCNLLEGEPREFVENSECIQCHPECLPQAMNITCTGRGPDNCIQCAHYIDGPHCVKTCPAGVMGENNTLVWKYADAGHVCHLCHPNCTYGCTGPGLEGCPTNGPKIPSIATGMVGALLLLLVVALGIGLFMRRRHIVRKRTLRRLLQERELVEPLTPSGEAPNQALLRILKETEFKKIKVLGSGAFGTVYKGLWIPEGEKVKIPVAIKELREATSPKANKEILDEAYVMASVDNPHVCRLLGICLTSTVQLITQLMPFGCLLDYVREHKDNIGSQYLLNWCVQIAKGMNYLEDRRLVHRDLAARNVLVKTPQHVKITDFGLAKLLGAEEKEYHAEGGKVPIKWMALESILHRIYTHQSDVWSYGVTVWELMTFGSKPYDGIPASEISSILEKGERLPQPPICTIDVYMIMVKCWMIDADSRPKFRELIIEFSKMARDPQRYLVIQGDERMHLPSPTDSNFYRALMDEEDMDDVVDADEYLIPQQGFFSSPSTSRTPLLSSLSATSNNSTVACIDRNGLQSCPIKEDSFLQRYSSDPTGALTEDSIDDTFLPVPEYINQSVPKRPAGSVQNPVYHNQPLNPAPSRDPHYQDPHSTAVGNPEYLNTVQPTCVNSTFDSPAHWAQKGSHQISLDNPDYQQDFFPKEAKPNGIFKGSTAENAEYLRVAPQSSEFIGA
T3 sequence (P00533 25-1210 T790M/C797S/L858R): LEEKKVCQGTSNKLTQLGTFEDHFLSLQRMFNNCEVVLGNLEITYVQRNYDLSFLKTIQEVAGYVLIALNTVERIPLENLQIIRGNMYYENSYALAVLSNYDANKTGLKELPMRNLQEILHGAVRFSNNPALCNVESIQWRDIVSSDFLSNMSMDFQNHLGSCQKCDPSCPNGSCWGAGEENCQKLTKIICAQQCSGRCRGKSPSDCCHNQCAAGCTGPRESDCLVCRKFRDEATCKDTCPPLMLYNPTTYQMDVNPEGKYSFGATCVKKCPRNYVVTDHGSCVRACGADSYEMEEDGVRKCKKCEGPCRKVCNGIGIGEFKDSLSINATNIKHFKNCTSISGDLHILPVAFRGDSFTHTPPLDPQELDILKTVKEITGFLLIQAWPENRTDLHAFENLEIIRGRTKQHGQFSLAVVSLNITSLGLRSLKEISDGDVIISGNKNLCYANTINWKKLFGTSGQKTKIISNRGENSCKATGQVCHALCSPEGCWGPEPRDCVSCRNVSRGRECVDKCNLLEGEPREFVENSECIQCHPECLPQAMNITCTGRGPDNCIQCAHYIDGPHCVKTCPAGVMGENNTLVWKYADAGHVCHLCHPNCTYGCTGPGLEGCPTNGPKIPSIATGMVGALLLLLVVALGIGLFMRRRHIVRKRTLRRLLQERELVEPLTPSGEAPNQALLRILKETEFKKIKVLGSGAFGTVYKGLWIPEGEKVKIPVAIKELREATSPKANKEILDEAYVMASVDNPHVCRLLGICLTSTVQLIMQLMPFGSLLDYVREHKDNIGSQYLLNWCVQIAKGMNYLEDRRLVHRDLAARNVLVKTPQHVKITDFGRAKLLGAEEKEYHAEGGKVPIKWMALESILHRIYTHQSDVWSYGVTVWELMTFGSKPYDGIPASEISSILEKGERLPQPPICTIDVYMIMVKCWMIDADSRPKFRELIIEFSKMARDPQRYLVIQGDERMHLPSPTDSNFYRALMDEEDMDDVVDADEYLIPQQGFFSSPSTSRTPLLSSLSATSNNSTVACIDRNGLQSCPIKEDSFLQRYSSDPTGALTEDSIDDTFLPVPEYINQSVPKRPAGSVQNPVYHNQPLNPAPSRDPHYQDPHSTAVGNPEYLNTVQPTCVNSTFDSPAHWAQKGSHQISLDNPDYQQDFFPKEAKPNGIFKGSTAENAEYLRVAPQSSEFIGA

In the case of `C#Cc1cc(=O)n([C@H]2CC[C@@H](NC(=O)CCC(=O)NC)CC2)c2nc(Nc3ccc(N4CCN(C)CC4)cc3)ncc12` [Example 98, N-Methyl-N′-[(1s,4s)-4-(5-ethynyl-2-{[4-(4-methylpiperazin-1-yl)phenyl]amino}-7-oxopyrido[2,3-d]pyrimidin-8-yl)cyclohexyl]succinamide], the IC50 in assay [1] is 1 to 10 µM; in assay [2], greater than 3 µM; in assay [3], greater than 3 µM; in assay [4], greater than 3 µM.

For the molecule `C#Cc1cc(=O)n([C@H]2CC[C@@H](NC(=O)CC(=O)O)CC2)c2nc(Nc3ccc(N4CCN(C)CC4)cc3)ncc12` [Example 99, 2-{[(1s,4s)-4-(5-Ethynyl-2-{[4-(4-methylpiperazin-1-yl)phenyl]amino}-7-oxopyrido[2,3-d]pyrimidin-8-yl)cyclohexyl]carbamoyl}acetic acid], the IC50 in assay [1] was less than 1 µM; in assay [2] it was greater than 3 µM; in assay [3], 1 to 3 µM; in assay [4], greater than 3 µM.

`C#Cc1cc(=O)n([C@H]2CC[C@@H](NC(=O)CN(C)C)CC2)c2nc(Nc3ccc(N4CCN(C)CC4)cc3)ncc12` [Example 100, 2-(Dimethylamino)-N-[(1s,4s)-4-(5-ethynyl-2-{[4-(4-methylpiperazin-1-yl)phenyl]amino}-7-oxopyrido[2,3-d]pyrimidin-8-yl)cyclohexyl]acetamide]: the IC50 in assay [1] is 1 to 10 µM; in assay [2] it was 1 to 3 µM; in assay [3], less than 0.5 µM; in assay [4], less than 0.5 µM.

With `C#Cc1cc(=O)n([C@H]2CC[C@@H](N(C)C(=O)CN(C)C)CC2)c2nc(Nc3ccccc3OC)ncc12` [Example 101, 2-(Dimethylamino)-N-methyl-N-[(1s,4s)-4-{5-ethynyl-2-[(2-methoxyphenyl)amino]-7-oxopyrido[2,3-d]pyrimidin-8-yl}cyclohexyl]acetamide], the IC50 is greater than 10 µM in assay [1], greater than 3 µM in assay [2], greater than 3 µM in assay [3] and greater than 3 µM in assay [4].

As to `C#Cc1c(C)c(=O)n([C@H]2CC[C@H](NC(C)=O)CC2)c2nc(Nc3ccc(N4CCN(C)CC4)cc3)ncc12` [Example 102, N-[(1r,4r)-4-(5-Ethynyl-6-methyl-2-{[4-(4-methylpiperazin-1-yl)phenyl]amino}-7-oxopyrido[2,3-d]pyrimidin-8-yl)cyclohexyl]acetamide], the IC50 fell in the range of 1 to 10 µM in assay [1], 1 to 3 µM in assay [2], 1 to 3 µM in assay [3] and 1 to 3 µM in assay [4].

As for `C#Cc1c(C)c(=O)n([C@H]2CC[C@@H](NC(C)=O)CC2)c2nc(Nc3ccc(N4CCN(C)CC4)cc3)ncc12` [Example 103, N-[(1s,4s)-4-(5-ethynyl-6-methyl-2-{[4-(4-methylpiperazin-1-yl)phenyl]amino}-7-oxopyrido[2,3-d]pyrimidin-8-yl)cyclohexyl]acetamide], the IC50 in assay [1] lay in the range of 1 to 10 µM; in assay [2], 1 to 3 µM; in assay [3] it was 1 to 3 µM; in assay [4], 1 to 3 µM.

With `C#Cc1cc(=O)n(C2CCNC2=O)c2nc(Nc3ccc(N4CCN(C)CC4)cc3)ncc12` (centres unmarked) [Example 104, 3-(5-ethynyl-2-{[4-(4-methylpiperazin-1-yl)phenyl]amino}-7-oxopyrido[2,3-d]pyrimidin-8-yl)pyrrolidin-2-one], the IC50 is greater than 10 µM in assay [1], greater than 3 µM in assay [2], less than 0.5 µM in assay [3] and 0.5 to 1 µM in assay [4].

Turning to `C#Cc1cc(=O)n(C2CCOC2)c2nc(Nc3ccc(N4CCN(C)CC4)cc3)ncc12` (centres unmarked) [Example 105, 5-ethynyl-2-{[4-(4-methylpiperazin-1-yl)phenyl]amino}-8-(oxolan-3-yl)pyrido[2,3-d]pyrimidin-7-one], the IC50 in assay [1] is greater than 10 µM; in assay [2] it was greater than 3 µM; in assay [3], 1 to 3 µM; in assay [4], 1 to 3 µM.
